For experiment [1], the target named is T1, androgen receptor (AR-LBD) (Rattus norvegicus, UniProt P15207).
T1 construct: 5 μL of 2×AR-LBD/Fluoromone AL Red Complex contained in the kit; purchased Invitrogen
T1 sequence (P15207 651-882 limits assumed): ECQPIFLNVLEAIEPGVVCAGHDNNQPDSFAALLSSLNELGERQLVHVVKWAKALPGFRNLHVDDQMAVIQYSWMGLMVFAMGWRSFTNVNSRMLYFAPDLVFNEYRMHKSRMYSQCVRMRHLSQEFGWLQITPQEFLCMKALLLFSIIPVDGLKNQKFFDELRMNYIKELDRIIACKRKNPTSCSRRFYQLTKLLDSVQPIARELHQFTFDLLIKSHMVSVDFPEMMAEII
In words: Evaluation of androgen receptor affinity (PolarScreen Androgen Receptor Competitor Assay Kit, Red; fluorescence polarization). The settings on record: 22° C. for 5 hours, relative to binding rate of 1 μM DHT, read-out: AR affinity (pEC50) (converted). In short, it runs like this: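 Duplicate wells; compound plus AR-LBD tracer complex incubated 22° C for 5 h, then FP measured. Effect compared with 1 μM DHT; 50%-effect concentration expressed as pEC50.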
(Fluorescence polarisation rises when a labelled molecule tumbles more slowly, as on binding a larger partner.)

The target in another experiment is T2, human androgen receptor (Homo sapiens, UniProt P10275).
T2 construct: expressed in transfected cells; host or cells: HEK293
T2 sequence (P10275 1-920): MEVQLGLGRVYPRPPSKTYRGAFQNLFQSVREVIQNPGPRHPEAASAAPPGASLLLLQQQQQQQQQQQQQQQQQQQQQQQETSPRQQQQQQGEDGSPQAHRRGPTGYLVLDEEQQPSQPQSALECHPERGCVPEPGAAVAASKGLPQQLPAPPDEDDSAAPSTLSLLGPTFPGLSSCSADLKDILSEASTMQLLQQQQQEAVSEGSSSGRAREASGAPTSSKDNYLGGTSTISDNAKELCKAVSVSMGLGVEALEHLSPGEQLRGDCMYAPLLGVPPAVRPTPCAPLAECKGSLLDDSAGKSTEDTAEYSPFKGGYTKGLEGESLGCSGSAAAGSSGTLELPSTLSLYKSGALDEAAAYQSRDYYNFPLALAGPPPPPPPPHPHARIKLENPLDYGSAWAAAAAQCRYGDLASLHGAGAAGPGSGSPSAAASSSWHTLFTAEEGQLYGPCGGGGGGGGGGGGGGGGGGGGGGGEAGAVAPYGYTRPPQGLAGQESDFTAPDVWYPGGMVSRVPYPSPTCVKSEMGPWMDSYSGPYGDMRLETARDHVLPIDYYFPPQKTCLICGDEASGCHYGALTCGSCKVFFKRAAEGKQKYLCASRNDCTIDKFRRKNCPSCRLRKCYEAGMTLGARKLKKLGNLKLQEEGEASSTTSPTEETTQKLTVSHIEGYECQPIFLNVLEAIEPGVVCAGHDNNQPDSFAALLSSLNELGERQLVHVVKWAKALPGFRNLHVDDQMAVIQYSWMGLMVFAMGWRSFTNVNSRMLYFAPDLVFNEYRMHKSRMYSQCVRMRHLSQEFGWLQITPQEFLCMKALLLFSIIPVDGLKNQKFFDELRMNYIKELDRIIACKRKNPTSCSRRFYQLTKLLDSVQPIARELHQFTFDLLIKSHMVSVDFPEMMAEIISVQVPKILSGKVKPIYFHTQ
In words: Reporter assay of an androgen receptor responsive sequence (luciferase, transiently transfected HEK293 cells). It counts as cell-based. The settings on record: 24 hours incubation, relative to activity of 100 nM DHT, read-out: AR transcriptive activity (pEC50) (converted). In short, it runs like this:
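Agonism scored as pEC50, fitted by 4-parameter curve against the response to 100 nM DHT, from dual-luciferase readout after 24 h compound treatment. Cells were HEK293 co-transfected (3 h) with human AR expression vector, androgen-responsive firefly reporter and Renilla control, in charcoal-stripped serum.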

Each structure is given as a SMILES string. Where only a bound is given, the exact number is not on record here.

Turning to `CCc1oc(N(Cc2cc3ccccc3s2)c2ccc(C#N)cc2)nc1C(=O)NS(C)(=O)=O` [Compound 626, 2-[N-(benzothiophen-2-ylmethyl)-4-cyano-anilino]-5-ethyl-N-methylsulfonyl-oxazole-4-carboxamide], the EC50 in experiment [1] is 15.8 nM; at human androgen receptor, 79.4 nM.
The matching figures for `CCS(=O)(=O)NC(=O)c1nc(N(Cc2ccc(Cl)cc2)c2ccc(C#N)cc2)oc1C` [Compound 627, 2-[N-[(4-chlorophenyl)methyl]-4-cyano-anilino]-N-ethylsulfonyl-5-methyl-oxazole-4-carboxamide]: 50.1 nM and 1000 nM.
The matching figures for `Cc1oc(N(Cc2ccc(Cl)cc2)c2ccc(C#N)cc2)nc1C(=O)NS(=O)(=O)C1CC1` [Compound 628, 2-[N-[(4-chlorophenyl)methyl]-4-cyano-anilino]-N-cyclopropylsulfonyl-5-methyl-oxazole-4-carboxamide]: 200 nM and greater than 10000 nM.
For `Cc1oc(N(Cc2nc3ccccc3s2)c2ccc(C#N)cc2)nc1C(=O)NS(C)(=O)=O` [Compound 630, 2-[N-(1,3-benzothiazol-2-ylmethyl)-4-cyano-anilino]-5-methyl-N-methylsulfonyl-oxazole-4-carboxamide], the figures for the EC50 (in experiment [1]; on human androgen receptor) were 158 nM and 2510 nM, respectively.
Taken in the same sequence, the figures for `CCc1oc(N(Cc2cccc(Cl)c2)c2ccc(C#N)cc2)nc1C(=O)NS(C)(=O)=O` [Compound 631, 2-[N-[(3-chlorophenyl)methyl]-4-cyano-anilino]-5-ethyl-N-methylsulfonyl-oxazole-4-carboxamide] were 39.8 nM and 794 nM.
Take `CCc1oc(N(Cc2ccc(OC(F)(F)F)cc2)c2ccc(C#N)cc2)nc1C(=O)NS(C)(=O)=O` [Compound 632, 2-[4-cyano-N-[[4-(trifluoromethoxy)phenyl]methyl]anilino]-5-ethyl-N-methylsulfonyl-oxazole-4-carboxamide]: the EC50 in experiment [1] was 39.8 nM; on human androgen receptor it was 1000 nM.
The matching figures for `CCc1oc(N(Cc2ccc(Cl)c(Cl)c2)c2ccc(C#N)cc2)nc1C(=O)NS(C)(=O)=O` [Compound 633, 2-[4-cyano-N-[(3,4-dichlorophenyl)methyl]anilino]-5-ethyl-N-methylsulfonyl-oxazole-4-carboxamide]: 31.6 nM and 126 nM.
The matching figures for `CCc1oc(N(Cc2ccc(OC(F)F)cc2)c2ccc(C#N)cc2)nc1C(=O)NS(C)(=O)=O` [Compound 634, 2-[4-cyano-N-[[4-(difluoromethoxy)phenyl]methyl]anilino]-5-ethyl-N-methylsulfonyl-oxazole-4-carboxamide]: 39.8 nM and 398 nM.
For the compound `CCc1oc(N(Cc2ccc(OC(F)F)cn2)c2ccc(C#N)cc2)nc1C(=O)NS(C)(=O)=O` [Compound 635, 2-[4-cyano-N-[[5-(difluoromethoxy)-2-pyridyl]methyl]anilino]-5-ethyl-N-methylsulfonyl-oxazole-4-carboxamide], the EC50 is 398 nM in experiment [1] and greater than 10000 nM on human androgen receptor.
The matching figures for `CCc1oc(N(Cc2ccc(Br)cn2)c2ccc(C#N)cc2)nc1C(=O)NS(C)(=O)=O` [Compound 636, 2-[N-[(5-bromo-2-pyridyl)methyl]-4-cyano-anilino]-5-ethyl-N-methylsulfonyl-oxazole-4-carboxamide]: 398 nM and 1580 nM.
As for `CCc1oc(N(Cc2ccccc2OC(F)F)c2ccc(C#N)cc2)nc1C(=O)NS(C)(=O)=O` [Compound 637, 2-[4-cyano-N-[[2-(difluoromethoxy)phenyl]methyl]anilino]-5-ethyl-N-methylsulfonyl-oxazole-4-carboxamide], the EC50 was 158 nM in experiment [1] and greater than 10000 nM on human androgen receptor.
On to `CCc1oc(N(Cc2ccc(C(F)(F)F)cn2)c2ccc(C#N)cc2)nc1C(=O)NS(C)(=O)=O` [Compound 638, 2-[4-cyano-N-[[5-(trifluoromethyl)-2-pyridyl]methyl]anilino]-5-ethyl-N-methylsulfonyl-oxazole-4-carboxamide], for which the EC50 in experiment [1] was 200 nM; at human androgen receptor it was 3160 nM.
The matching figures for `CCc1oc(N(Cc2ccc(C(F)(F)F)nc2)c2ccc(C#N)cc2)nc1C(=O)NS(C)(=O)=O` [Compound 639, 2-[4-cyano-N-[[6-(trifluoromethyl)-3-pyridyl]methyl]anilino]-5-ethyl-N-methylsulfonyl-oxazole-4-carboxamide]: 251 nM and 7940 nM.
Taken in the same sequence, the figures for `CS(=O)(=O)NC(=O)c1nc(N(Cc2ccc(F)cn2)c2ccc(C#N)cc2)sc1Br` [Compound 640, 5-bromo-2-[4-cyano-N-[(5-fluoro-2-pyridyl)methyl]anilino]-N-methylsulfonyl-thiazole-4-carboxamide] were 398 nM and 316 nM.
Consider `CS(=O)(=O)NC(=O)c1nc(N(Cc2ccc(Cl)cn2)c2ccc(C#N)cc2)sc1Br` [Compound 641, 5-bromo-2-[N-[(5-chloro-2-pyridyl)methyl]-4-cyano-anilino]-N-methylsulfonyl-thiazole-4-carboxamide], for which the values for the EC50 (in experiment [1]; at human androgen receptor) were 126 nM and 79.4 nM, respectively.
Taken in the same sequence, the figures for `CS(=O)(=O)NC(=O)c1nc(N(Cc2ccc(Br)cn2)c2ccc(C#N)cc2)sc1Br` [Compound 642, 5-bromo-2-[N-[(5-bromo-2-pyridyl)methyl]-4-cyano-anilino]-N-methylsulfonyl-thiazole-4-carboxamide] were 79.4 nM and 50.1 nM.
As to `CS(=O)(=O)NC(=O)c1nc(N(Cc2ccc(C(F)(F)F)cn2)c2ccc(C#N)cc2)sc1Br` [Compound 643, 5-bromo-2-[4-cyano-N-[[5-(trifluoromethyl)-2-pyridyl]methyl]anilino]-N-methylsulfonyl-thiazole-4-carboxamide], the figures for the EC50 (in experiment [1]; at human androgen receptor) were 79.4 nM and 63.1 nM, respectively.
In the case of `CS(=O)(=O)NC(=O)c1nc(N(Cc2ccc(Cl)cn2)c2ccc(C(F)(F)F)nc2)sc1Br` [Compound 644, 5-bromo-2-[(5-chloro-2-pyridyl)methyl-[6-(trifluoromethyl)-3-pyridyl]amino]-N-methylsulfonyl-thiazole-4-carboxamide], the figures for the EC50 (in experiment [1]; on human androgen receptor) were 200 nM and 501 nM, respectively.
Consider `CS(=O)(=O)NC(=O)c1nc(N(Cc2ccc(C(F)(F)F)nc2)c2ccc(C#N)cc2)sc1Br` [Compound 645, 5-bromo-2-[4-cyano-N-[[6-(trifluoromethyl)-3-pyridyl]methyl]anilino]-N-methylsulfonyl-thiazole-4-carboxamide], for which the EC50 in experiment [1] was 63.1 nM; at human androgen receptor, 1260 nM.
For `CS(=O)(=O)NC(=O)c1nc(N(Cc2ccc(Cl)cc2)c2ccc(C#N)cc2)oc1C1CC1` [Compound 646, 2-[N-[(4-chlorophenyl)methyl]-4-cyano-anilino]-5-cyclopropyl-N-methylsulfonyl-oxazole-4-carboxamide], the EC50 is 39.8 nM in experiment [1] and greater than 10000 nM on human androgen receptor.
Take `CS(=O)(=O)NC(=O)c1nc(N(Cc2ccc(Cl)c(Cl)c2)c2ccc(C#N)cc2)oc1C1CC1` [Compound 647, 2-[4-cyano-N-[(3,4-dichlorophenyl)methyl]anilino]-5-cyclopropyl-N-methylsulfonyl-oxazole-4-carboxamide]: the values for the EC50 (in experiment [1]; on human androgen receptor) were 25.1 nM and greater than 10000 nM, respectively.
On to `CS(=O)(=O)NC(=O)c1nc(N(Cc2ccc(OC(F)F)cc2)c2ccc(C#N)cc2)oc1C1CC1` [Compound 648, 2-[4-cyano-N-[[4-(difluoromethoxy)phenyl]methyl]anilino]-5-cyclopropyl-N-methylsulfonyl-oxazole-4-carboxamide], for which the EC50 in experiment [1] was 50.1 nM; on human androgen receptor, greater than 10000 nM.

These data come from patent US10689354B2, “Aminoazole derivative” (Teijin Pharma Limited, priority 2015, dated 2020).
